Assay results: patent publication US8207156B2, “Substituted pyrazoline compounds, their preparation and use as medicaments” (Laboratorios Del Dr. Esteve, S.A., priority 2005, dated 2012)

Each compound was assayed against recombinant human cannabinoid 1 receptor (CB1) (Homo sapiens, UniProt P21554) (assay: In vitro determination of antagonism to CB1-receptor ([35S]GTPγS binding assay, CHO cell membranes)). Conditions: compound at 1 μM against agonist WIN 55,212-2 (3 nM to 3 μM); effect of Rimonabant (1 μM) defined as 100%.
recombinant human cannabinoid 1 receptor (CB1), sequence (P21554 whole entry): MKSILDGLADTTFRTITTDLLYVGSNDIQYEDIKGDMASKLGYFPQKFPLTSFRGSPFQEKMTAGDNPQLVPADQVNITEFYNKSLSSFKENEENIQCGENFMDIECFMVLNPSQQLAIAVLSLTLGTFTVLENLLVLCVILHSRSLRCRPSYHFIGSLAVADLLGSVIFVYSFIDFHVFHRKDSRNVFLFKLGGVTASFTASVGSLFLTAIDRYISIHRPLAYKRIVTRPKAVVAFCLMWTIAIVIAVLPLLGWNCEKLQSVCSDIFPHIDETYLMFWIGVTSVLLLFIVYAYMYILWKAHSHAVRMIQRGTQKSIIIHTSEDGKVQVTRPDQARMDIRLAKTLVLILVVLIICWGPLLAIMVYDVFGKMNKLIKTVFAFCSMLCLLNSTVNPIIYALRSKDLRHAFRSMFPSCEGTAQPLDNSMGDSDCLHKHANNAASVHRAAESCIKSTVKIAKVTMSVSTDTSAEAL
Assay type: biochemical
Procedure: Chinese hamster ovary (CHO) cells stably expressing recombinant human cannabinoid 1 receptor (CB1) were cultured in nutrient mixture Ham's F 12 supplemented with 10% heat-inactivated fetal bovine serum, 2 mM L-glutamine, 50 U/ml penicillin, 50 U/ml streptomycin and 0.5 mg/ml geneticin. In order to obtain cells, culture flasks were washed twice with phosphate buffered saline and scraped. Then, cells were collected by centrifugation (200×g, 10 min) and stored dry at −80° C. Cells were homogenized in ice-cold 20 mM HEPES, 10 mM EDTA (pH 7.5) and centrifuged at 40,000×g for 15 min at 4° C. The membrane pellet was resuspended in 20 mM HEPES, 0.1 mM EDTA (pH 7.5) and centrifuged for 15 min at 4° C. The final membrane pellet was resuspended in 20 mM HEPES, 0.1 mM EDTA (pH 7.5), and divided in aliquots and stored at −80° C. until use.
The reaction was performed in 96-well plates. Membranes (15 μg protein/well) were incubated for 60 min at 30° C. in buffer (50 mM HEPES, 100 mM KCl, 5 mM MgCl2,1 mM EDTA, 0.1% wt/vol bovine serum albumin, 5 μM GDP, saponin (10 μg/ml), 0.5 nM [^35S]GTPγS, pH 7.4) with compound at a final concentration of 1 μM in either the absence or presence of agonist WIN 55, 212-2 between 3 nM and 3 μM. The incubation was terminated by rapid filtration through Millipore Multiscreen glass fiber FB, and rinsed two-times with ice-cold assay buffer. Filter plates were dried and 30 μl of scintillation liquid was added. Radioactivity was determined using a Wallac Microbeta Trilux. Each experiment was performed at least in duplicate. A WIN 55, 212-2 dose-response experiment either alone or in the presence of Rimonabant (1 μM) was systematically performed.
The average of basal [^35S]GTPγS binding was subtracted from all binding data. In order to compare the antagonism results from one screening campaign to another one, the difference between the maximal agonist effect of WIN 55, 212-2 alone, and the maximal antagonism effect due to WIN 55, 212-2 plus Rimonabant (1 μM) was defined as 100%.

Row | Structure (SMILES) | Antagonism [%]
1 | O=C(NC1CCCCCCCCCCC1)C1=NN(c2ccc(Cl)cc2Cl)C(c2ccc(Cl)cc2)C1 (stereo not shown) [Example 49, 5-(4-Chloro-phenyl)-1-(2,4-dichloro-phenyl)-4,5-dihydro-1H-pyrazole-3-carboxylic acid cyclododecylamide] | 14
2 | CC(C)N(C(=O)C1=NN(c2ccc(Cl)cc2Cl)C(c2ccc(Cl)cc2)C1)C(C)C (stereo not shown) [Example 50, 5-(4-Chloro-phenyl)-1-(2,4-dichloro-phenyl)-4,5-dihydro-1H-pyrazole-3-carboxylic acid diisopropylamide] | 18
3 | CN(C)C(=O)C1=NN(c2ccc(Cl)cc2Cl)C(c2ccc(Cl)cc2)C1 (stereo not shown) [Example 51, 5-(4-Chloro-phenyl)-1-(2,4-dichloro-phenyl)-4,5-dihydro-1H-pyrazole-3-carboxylic acid dimethylamide] | 21
4 | CC(C)N(C(=O)C1=NN(c2ccc(Cl)cc2Cl)C(c2ccc(Cl)cc2)C1)C1CCCCC1 (stereo not shown) [Example 55, 5-(4-Chloro-phenyl)-1-(2,4-dichloro-phenyl)-4,5-dihydro-1H-pyrazole-3-carboxylic acid cyclohexyl-isopropyl-amide] | 30
5 | O=C(NN1CCCC1)C1=NN(c2ccc(Cl)cc2Cl)C(c2ccc(Br)cc2)C1 (stereo not shown) [Example 61, 5-(4-Bromo-phenyl)-1-(2,4-dichloro-phenyl)-4,5-dihydro-1H-pyrazole-3-carboxylic acid pyrrolidin-1-ylamide] | 75
6 | O=C(NN1CCOCC1)C1=NN(c2ccc(Cl)cc2Cl)C(c2ccc(Br)cc2)C1 (stereo not shown) [Example 67, 5-(4-Bromo-phenyl)-1-(2,4-dichloro-phenyl)-4,5-dihydro-1H-pyrazole-3-carboxylic acid morpholin-4-ylamide] | 52
7 | O=C(O)C1=NN(c2ccc(Cl)cc2Cl)C(c2ccc(F)cc2)C1 (stereo not shown) [Example 126, 1-(2,4-Dichloro-phenyl)-5-(4-fluoro-phenyl)-4,5-dihydro-1H-pyrazole-3-carboxylic acid] | 30

Second part, the compound after the results:

Row | Antagonism [%] | Structure (SMILES)
8 | 14 | O=C(O)[C@@H]1CCCN1C(=O)C1=NN(c2ccc(Cl)cc2Cl)C(c2ccc(Cl)cc2)C1 (stereo partly shown) [Example 53, 1-[5-(4-Chloro-phenyl)-1-(2,4-dichloro-phenyl)-4,5-dihydro-1H-pyrazole-3-carbonyl]-pyrrolidine-2-carboxylic acid]
9 | 46 | O=C(C1=NN(c2ccc(Cl)cc2Cl)C(c2ccc(Cl)cc2)C1)N1CCOCC1 (stereo not shown) [Example 54, [5-(4-Chloro-phenyl)-1-(2,4-dichloro-phenyl)-4,5-dihydro-1H-pyrazol-3-yl]-morpholin-4-yl-methanone]
10 | 44 | O=C(C1=NN(c2ccc(Cl)cc2Cl)C(c2ccc(Cl)cc2)C1)N1CCc2sccc2C1 (stereo not shown) [Example 56, [5-(4-Chloro-phenyl)-1-(2,4-dichloro-phenyl)-4,5-dihydro-1H-pyrazol-3-yl]-(6,7-dihydro-4H-thieno[3,2-c]pyridin-5-yl)-methanone]
11 | 47 | CC1(C)[C@@H]2CC[C@@]1(C)[C@@H](NC(=O)C1=NN(c3ccc(Cl)cc3Cl)C(c3ccc(Cl)cc3)C1)C2 (stereo partly shown) [Example 58, 5-(4-Chloro-phenyl)-1-(2,4-dichloro-phenyl)-4,5-dihydro-1H-pyrazole-3-carboxylic acid (1,7,7-trimethyl-bicyclo[2.2.1]hept-2-yl)-amide]
12 | 60 | CCC1CCC(C)N(C(=O)C2=NN(c3ccc(Cl)cc3Cl)C(c3ccc(Cl)cc3)C2)C1 (stereo not shown) [Example 59, [5-(4-Chloro-phenyl)-1-(2,4-dichloro-phenyl)-4,5-dihydro-1H-pyrazol-3-yl]-(5-ethyl-2-methyl-piperidin-1-yl)-methanone]
13 | 67 | CC1CCCC(C)N1NC(=O)C1=NN(c2ccc(Cl)cc2Cl)C(c2ccc(Br)cc2)C1 (stereo not shown) [Example 62, 5-(4-Bromo-phenyl)-1-(2,4-dichloro-phenyl)-4,5-dihydro-1H-pyrazole-3-carboxylic acid (2,6-dimethyl-piperidin-1-yl)-amide]
